Entries after “also recorded” stand apart in the source; their conditions may differ.
Legend:
[1] = test system: Starbonnet rice seedlings; experiment: Growth analysis of Starbonnet rice seedlings under different light intensities (Example VI); assay type: in vivo; design: key to NAR: mg plant weight per cm^2 leaf area per day; RGR / LAR: unit not given here
Description: (§1) Rice seed cv. IR-8, or Starbonnet was surface treated with 0.1 percent mercuric chloride and planted in 77 cc plastic cups containing vermiculite and watered with one-fourth Hoagland's nutrient solution containing 3 mM of nitrogen at pH 5.0. After 10 days, seedlings were transplanted to 220 cc specimen cups wrapped in aluminum foil and containing 180 cc of the same Hoagland's nutrient solution. Four seedlings were suspended in the solution with a sponge rubber disc. The plants were grown under a 8 h night at 25° C. and a 16 h day at 30° C. with 21 and 8 μwatts per cm^2 in the blue and red spectra respectively. In the test with varying light intensity the high light intensity was 30 13 and the low intensity was 15 and 8 μwatts per cm^2 for the blue and red spectra respectively. The nutrient solution was renewed every 2 or 3 days. After one week the plants were sorted for size and similar sized plants assigned to the same block for the experiment. Prior to the initiation of a test the plants in each cup were assigned treatment numbers by use of a random number table. […] Sixteen hours prior to a test the foil wrapped cups were tared, and filled with one-half Hoaglands solution containing 6 mM nitrogen. Eighteen μl of chloroform or chloroform containing 1.8 μg triacontanol were placed on 2 cm^2 of Whatman No. 1 filter papers, air dried and placed in the specimen cups. This concentration of 10 μg triacontanol/liter was used for all tests described in the following Examples except where specifically indicated to the contrary. Immediately prior to the test the cups were all brought up to 180 ml. including a set of cups without plants to measure evaporation.
(§2) The plants were disected at harvest into shoots and roots. The expanded leaves were cut at the ligule and the newest leaf at the point it entered the sheath. The surface area of expanded leaves were measured using a Lambda Model LI-3000 planimeter. The plants were dried to constant weight in an oven at 100° C. and the roots, expanded leaves, and sheaths were weighed separately.
Growth analysis was conducted according to Evans (1972). The Net Assimulation Rate (NAR) is the increase in plant weight per unit of leaf area over time interval where: W=total weight per plant in mg, T=time in days, and L=leaf area in cm^2. [formula]
The relative growth rate (RGR) is the increase in plant weight per unit of original weight over a time interval and is obtained by: [formula]
The leaf area ratio is the ratio of leaf area to […] over a time interval. [formula]
This Example presents a growth analysis of `Starbonnet` rice seedlings treated with triacontanol under different light intensities, "Low" and "High" intensities are defined above, and in the Table VI these designations represent the light to which each plant was subjected.

[2] = test system: Heinz 1350 tomato seedlings; experiment: Tomato seedlings in nutrient culture, two application methods (Table XIII); assay type: in vivo
Text: These tests were run to determine the response of "Heinz 1350" tomato seedlings to applications of triacontanol in nutrient culture, in two different application methods.

[3] = test system: Starbonnet rice seedlings; experiment: Dry weight, leaf area and water uptake of rice under two light intensities (Example XVI); assay type: in vivo
Description: as §1
Water uptake was measured by weighing the cups after removal of the plants and subtracting the tare and the water evaporated. For tests continued for more than one day, the solution used was measured every 3 days and new Hoagland's added and the pH maintained at 5.0 with sulfuric acid.
as §2
Fourteen day old "Starbonnet" rice seedlings were prepared and treated with triacontanol as explained in Example IV above.
The increase in dry weight and leaf area and the water uptake of the rice seedlings treated with triacontanol under two different light intensities was determined. High light was 30 and 13 μwatts/cm^2 and low light 15 and 8 μwatts/cm^2 in the blue and red spectra respectively. The plants were exposed to these light conditions 36 hours prior to treatment. At zero time the plants under low light intensity weighed 26.0 mg with 4.41 cm^2 leaf area. The high light plants weighed 29.5 mg per plant with 4.01 cm^2 leaf area per plant. FIGS. 1, 2 and 3 of the accompanying drawings show the results of these tests. In each Figure, A=low light control; B=low light+triacontanol; C=high light control; and D=high light+triacontanol. Presented in tabular form, the data for FIGS. 1, 2 and 3 appears in Table XVI, as follows: […]

[4] = test system: Tomato callus cell culture; experiment: Growth of tomato callus cell culture (Example XIX); assay type: cell-based, Lycopersicon esculentum, var. marglobe
Description: (§3) Cell cultures were separately grown in disposable petri dishes.
2. Tomato (Lycopersicon esculentum, var. marglobe)
(§4) The cultures were grown on the basic medium of mineral salts described by Linsmaier and Skoog (Physiol. Plant, […] (1965)). Vitamins and hormones varied for each tissue (Table X-1) to maintain the tissues in an undifferentiated state. For all of the tissues inositol was 100 mg/liter and agar 1%. Sucrose was 3% for all but the bean which was 2%.
(§5) Callus was produced from pith for tobacco, potato and tomato. Bean callus was produced from hypocotyl sections and barley callus from immature ovarian tissue. Subcultures were maintained on the appropriate media.
(§6) Stock solutions of triacontanol were prepared at a concentration of 100 μg/ml. The solvent used was glass distilled benzene. The lower concentrations were obtained by serial dilutions. Treatments were applied to 4.5 cm Whatman #1 filter paper disks in 100 μl aliquots. Controls received 100 μl of glass distilled benzene. The solvent was evaporated for approximately 15 minutes and the filter papers were then placed on the agar medium.
(§7) Callus tissue was then broken into pieces of approximately the same size (10 mg) and placed in the petri dishes on the treated filter paper (one piece per dish). For experiments conducted in the light the intensity was approximately 2.0 microwatts/cm^2 -namometer. Fresh weight measurements were made after 12 days of growth.

[5] = test system: Potato callus cell culture; experiment: Growth of potato callus cell culture (Example XIX); assay type: cell-based, Solanum tuberosum, var. adveria
Description: as §3
3. Potato (Solanum tuberosum, var. adveria)
as §4, §5, §6, §7

[6] = printed 10.0 g triacontanol, 12 days

CCCCCCCCCCCCCCCCCCCCCCCCCCCCCCO [Triacontanol, 1-triacontanol]
LAR ([1]; high light, 0-4 hours): 3.31 | NAR ([1]; high light, 0-4 hours): 6.42 | RGR ([1]; high light, 0-4 hours): 0.89 | LAR ([1]; high light, 5-8 hours): 3.45 | NAR ([1]; high light, 5-8 hours): 3.96 | RGR ([1]; high light, 5-8 hours): 0.57 | LAR ([1]; high light, 9-16 hours): 3.74 | NAR ([1]; high light, 9-16 hours): 3.19 | RGR ([1]; high light, 9-16 hours): 0.50 | dry weight accumulation per leaf area at low light versus control at high light ([1]; low light intensities): as much dry weight per cm^2 of leaf area at low light intensities as the control plants did at the higher light intensity; also recorded: as much dry weight per unit of leaf area at low light intensities as the control plants did at higher light intensities | LAR ([1]; low light, 0-4 hours): 3.76 | NAR ([1]; low light, 0-4 hours): 3.77 | RGR ([1]; low light, 0-4 hours): 0.59 | LAR ([1]; low light, 5-8 hours): 3.90 | NAR ([1]; low light, 5-8 hours): 4.14 | RGR ([1]; low light, 5-8 hours): 0.67 | LAR ([1]; low light, 9-16 hours): 4.20 | NAR ([1]; low light, 9-16 hours): 2.81 | RGR ([1]; low light, 9-16 hours): 0.49 | Dry wt ([2]; filter paper, 0.01): 382 mg/seedling | Dry wt ([2]; filter paper, 0.10): 430 mg/seedling | Dry wt ([2]; foliar, 0.01): 405 mg/seedling | Dry wt ([2]; foliar, 0.10): 407 mg/seedling | Dry Wt., Percent Increase from Zero Time ([3]; high light, 4 hr): 16% | Leaf Area, Percent Increase from Zero Time ([3]; high light, 4 hr): 19% | Water Uptake ([3]; high light, 4 hr): 192 μl/cm^2 leaf area | Dry Wt., Percent Increase from Zero Time ([3]; high light, 8 hr): 27% | Leaf Area, Percent Increase from Zero Time ([3]; high light, 8 hr): 38% | Water Uptake ([3]; high light, 8 hr): 351 μl/cm^2 leaf area | Dry Wt., Percent Increase from Zero Time ([3]; high light, 16 hr): 51% | Leaf Area, Percent Increase from Zero Time ([3]; high light, 16 hr): 88% | Water Uptake ([3]; high light, 16 hr): 649 μl/cm^2 leaf area | dry weight and leaf area gain under low light versus control under high light ([3]; low light conditions): gained as much dry weight and leaf area as the control plants did when subjected to high light conditions | Dry Wt., Percent Increase from Zero Time ([3]; low light, 4 hr): 10% | Leaf Area, Percent Increase from Zero Time ([3]; low light, 4 hr): 7% | Water Uptake ([3]; low light, 4 hr): 117 μl/cm^2 leaf area | Dry Wt., Percent Increase from Zero Time ([3]; low light, 8 hr): 23% | Leaf Area, Percent Increase from Zero Time ([3]; low light, 8 hr): 31% | Water Uptake ([3]; low light, 8 hr): 239 μl/cm^2 leaf area | Dry Wt., Percent Increase from Zero Time ([3]; low light, 16 hr): 45% | Leaf Area, Percent Increase from Zero Time ([3]; low light, 16 hr): 64% | Water Uptake ([3]; low light, 16 hr): 453 μl/cm^2 leaf area | % of control [4, 6]: 140 % of control | Fresh weight [4, 6]: 16.8 | growth of in vitro cell cultures ([4]; tomato): significant increases in growth | growth of in vitro cell cultures ([5]; potato): significant increases in growth | % of control [5, 6]: 121 % of control | Fresh weight [5, 6]: 23.5

Source: patent US4150970A, “Growth regulator for plants” (Board of Trustees of Michigan State University, priority 1977, dated 1979)
